Data: patent publication US20090221441A1, “THREE-DIMENSIONAL CELLULAR ARRAY CHIP AND PLATFORM FOR TOXICOLOGY ASSAYS” (Rensselaer Polytechnic Institute, priority 2005, published 2009)
“Also recorded” adds a separate entry of the source. Each block holds one molecule with its values, some of them ahead of it.

Tests used:
[1] = Cytotoxicity of compounds and their P450-generated metabolites, Hep3B DataChip stamped with MetaChip; conditions: human
Method: (§1) The cytotoxicity of drugs (or drug metabolites) was determined by staining the slide containing the cells with a Live/Dead test kit (Molecular Probes) that produces a green fluorescent response from living cells. At the end of the 3-day culture period post stamping, the three-dimensional cell chip (DataChip) was rinsed three times in PBS for 5 min each. One mL of a dye solution containing 0.5 μM calcein AM was applied to each three-dimensional cell chip using a glass slide with 1 mm thick perimeter gasket acting as a barrier to prevent loss of the dye solution.
(§2) Following incubation for 50 minutes at room temperature, excess dye in the collagen-gel drops was removed by incubating the slides in a petri dish containing 16 mL of PBS for 30 min on a gyratory shaker at 60 rpm. The three-dimensional cell chip was dried thoroughly with nitrogen. The three-dimensional cell chip was scanned with the GenePix® Professional 4200A scanner equipped with blue laser and standard blue filter to determine the green fluorescent intensity and was quantified from the scanning image using GenePix Pro 6.0 (Molecular Devices Co.).
(§3) Percent live cells=(FReaction/FMax)×100
(§4) where FReaction is the green fluorescence intensity of the reaction spot and FMax is the green fluorescence intensity of untreated fully viable cells.
(§5) For efficient stamping, MTMOS-coated glass slides were prepared to contain a sol-gel barrier on the periphery of the slides.
(§6) To this end […] of methyltrimethoxysilane (MTMOS) sol was prepared by mixing 2 mL of MTMOS with 1 mL of HCl (10 mM) and sonicated for 10 min. The sol was spotted on the periphery of the MTMOS-coated slide and then the slide was baked in an oven for 30 min at 120° C.
(§7) The MetaChip was stored at −80° C. for 1 day prior to use. Cytotoxicity studies were performed by spotting 20 nL of test compound in distilled water (0-2 mM) onto the MetaChip spots and partially dried.
(§8) This was followed by stamping of the three-dimensional cell chip (DataChip) containing either MCF7 or Hep3B cells onto the MetaChip.
(§9) To this end, a MetaChip consisting of 20×54 alginate spots was prepared; each spot containing a single human P450 isoform (CYP1A2, CYP2D6, or CYP3A4), a mixture of the three isoforms, or no P450 as a test compound only control. Addition of test compounds was carried out by overlay spotting of solutions of these compounds onto the MetaChip, which was then stamped on top of the DataChip.
(§10) Using three DataChips in combination with three MetaChips, IC50 values for 27 compounds and their P450-generated metabolites against human Hep3B cells were determined. […] The three P450 isoforms were used along with an equimolar mixture of the three isoforms and a test compound only control without P450. The test compounds were added to the MetaChip, which was then stamped onto the DataChip and incubated for 6 h. This was followed by removing the DataChip, rinsing with growth medium, incubating in media for 3 days, and then stained for cell viability.

human Hep3B cells = test: in vitro
Method: as §1, §2, §3, §4, §5, §6, §7, §8, §9, §10

[2] = P450 activity determination with blue fluorogenic substrates in 384-well plate; format: biochemical, human
Method: To assess the intrinsic reactivity of P450s in alginate matrices, reactions were performed in wells of a 384-well plate. P450-containing alginate sol was prepared by dispensing 24 μL of P450 baculosomes (1 nmol P450/mL), 36 μL of distilled water, and 60 μL of alginate (2%) in distilled water. Five microliters of this solution were spotted onto 5 μL of the dried PLL-barium spot in a 384-well. Followed by storage of the P450-alginate gel drops at −80° C. for 1 day, 25 μL of blue fluorogenic substrates (BOMCC for CYP3A4 and EOMCC for CYP1A2 and CYP2D6) containing 250 μM NADP^+ and its regeneration system (8 mM glucose-6-phosphate and 1 U/mL glucose-6-phosphate dehydrogenase) in 50 mM potassium phosphate buffer (pH 8) were dispensed onto the thawed P450-alginate gel drop.
As a control, soluble P450 without alginate was also used. The blue fluorescent 7-hydroxycoumarin released by P450-catalyzed oxidation of BOMCC or EOMCC was monitored as a function of time using a BioAssay Reader HTS 7000 Plus (Perkin Elmer, Norwalk, Conn.) at an excitation wavelength of 430 nm and emission wavelength of 497 nm.

[3] = IC50, CYP1A2, Hep3B DataChip, MetaChip spots with CYP1A2
[4] = IC50, CYP2D6, Hep3B DataChip, MetaChip spots with CYP2D6
[5] = IC50, CYP3A4, Hep3B DataChip, MetaChip spots with CYP3A4
[6] = IC50, Mixture, Hep3B DataChip, equimolar mixture of CYP1A2, CYP2D6, CYP3A4
[7] = IC50, No P450, Hep3B DataChip, test compound only control without P450
[8] = Hep3B cells, compared with no P450
[9] = Soluble enzyme (control, in solution)

Molecule: CN(Cc1cnc2nc(N)nc(N)c2n1)c1ccc(C(=O)N[C@@H](CCC(=O)O)C(=O)O)cc1 [Methotrexate]
IC50 at 6 h [1, 3]: 2.79 ± 0.73 µM
IC50 at 6 h [1, 4]: 38.3 ± 12.1 µM
IC50 at 6 h [1, 5]: 10.9 ± 2.76 µM
IC50 at 6 h [1, 6]: 8 ± 2.97 µM
IC50 at 6 h [1, 7]: 2.41 ± 0.55 µM
Activation or deactivation of the toxic response by CYP2D6 (human Hep3B cells): deactivating
Activation or deactivation of the toxic response by CYP3A4 (human Hep3B cells): deactivated

Molecule: CN1CCCC1c1cccnc1 (centres unmarked) [Nicotine]
IC50 ([1]; IC50, CYP1A2): 90.8 ± 20.3 µM
IC50 ([1]; IC50, CYP2D6): 158 ± 39.5 µM
IC50 ([1]; IC50, CYP3A4): 647 ± 191 µM
IC50 ([1]; IC50, Mixture): 377 ± 147 µM
IC50 ([1]; IC50, No P450): 29.5 ± 4.12 µM
Activation or deactivation of the toxic response by CYP1A2 (human Hep3B cells): moderately to weakly deactivated
Activation or deactivation of the toxic response by CYP2D6 (human Hep3B cells): deactivating
Activation or deactivation of the toxic response by CYP3A4 (human Hep3B cells): deactivated chloroquine, quinidine, nicotine (strongly)

Molecule: CC(=O)O[C@H]1C(=O)[C@@]2(C)[C@H]([C@H](OC(=O)c3ccccc3)[C@]3(O)C[C@H](OC(=O)[C@H](O)[C@@H](NC(=O)c4ccccc4)c4ccccc4)C(C)=C1C3(C)C)[C@]1(OC(C)=O)CO[C@@H]1C[C@@H]2O [Paclitaxel, paclitaxel]
Activation or deactivation of the toxic response by CYP2D6 (human Hep3B cells): deactivating

Molecule: C[n+]1ccc(-c2cc[n+](C)cc2)cc1 [Paraquat, paraquat]
IC50 [1, 3]: 5.06 ± 0.29 µM
IC50 [1, 4]: 20.8 ± 1.8 µM
IC50 [1, 5]: 52 ± 9.12 µM
IC50 [1, 6]: 44.2 ± 6.05 µM
IC50 [1, 7]: 79.8 ± 12.7 µM
Activation or deactivation of the toxic response by the mixture of the three P450 isoforms (human Hep3B cells; Hep3B cells): activation
Activation or deactivation of the toxic response by CYP1A2 (human Hep3B cells; [8]): activation
Activation or deactivation of the toxic response by CYP2D6 (human Hep3B cells; [8]): activation; also recorded: activated

Molecule: Oc1c(Cl)c(Cl)c(Cl)c(Cl)c1Cl [Pentachlorophenol]
IC50 ([1]; IC50, CYP1A2): > 1000 µM
IC50 ([1]; IC50, CYP2D6): > 1000 µM
IC50 ([1]; IC50, CYP3A4): > 1000 µM
IC50 ([1]; IC50, Mixture): 489 ± 272 µM
IC50 ([1]; IC50, No P450): > 1000 µM

Molecule: C=C[C@H]1C[N@@]2CC[C@H]1C[C@@H]2[C@@H](O)c1ccnc2ccc(OC)cc12 [Quinidine]
IC50 at 6 h [1, 3]: 92.9 ± 7.5 µM
IC50 at 6 h [1, 4]: 106 ± 9.05 µM
IC50 at 6 h [1, 5]: 126 ± 10.2 µM
IC50 at 6 h [1, 6]: 246 ± 39.4 µM
IC50 at 6 h [1, 7]: 19.2 ± 2.36 µM
Activation or deactivation of the toxic response by the mixture of the three P450 isoforms (human Hep3B cells; Hep3B cells): greater deactivation in the mixture than with any of the three individual isoforms
Activation or deactivation of the toxic response by CYP1A2 (human Hep3B cells; [8]): moderately to weakly deactivated
Activation or deactivation of the toxic response by CYP2D6 (human Hep3B cells; [8]): deactivating
Activation or deactivation of the toxic response by CYP3A4 (human Hep3B cells; [8]): deactivated

Molecule: O=c1[nH]c(=O)n(C2CCCO2)cc1F (centres unmarked) [Tegafur, 5-fluoro-1-(tetrahydro-2-furfuryl)-uracil]
IC50 at 6 h [1, 3]: > 1000 µM
IC50 at 6 h [1, 4]: > 1000 µM
IC50 at 6 h [1, 5]: 54800 ± 21400 µM
IC50 at 6 h [1, 6]: > 1000 µM
IC50 at 6 h [1, 7]: > 1000 µM

Molecule: Cn1c(=O)c2[nH]cnc2n(C)c1=O [Theophylline]
IC50 at 6 h [1, 3]: 239 ± 56.4 µM
IC50 at 6 h [1, 4]: 119 ± 26.3 µM
IC50 at 6 h [1, 5]: 36.9 ± 11.2 µM
IC50 at 6 h [1, 6]: 84.3 ± 22.1 µM
IC50 at 6 h [1, 7]: 38.4 ± 8.92 µM
Activation or deactivation of the toxic response by CYP1A2 (human Hep3B cells): moderately to weakly deactivated
Activation or deactivation of the toxic response by CYP2D6 (human Hep3B cells): deactivating

IC50 at 6 h ([1]; IC50, CYP1A2): > 1000 µM
IC50 at 6 h ([1]; IC50, CYP2D6): > 1000 µM
IC50 at 6 h ([1]; IC50, CYP3A4): > 1000 µM
IC50 at 6 h ([1]; IC50, Mixture): > 1000 µM
IC50 at 6 h ([1]; IC50, No P450): > 1000 µM
Molecule: CC(=O)CC(c1ccccc1)c1c(O)c2ccccc2oc1=O (centres unmarked) [Warfarin]

Molecule: CYP3A4: human P450 isoform (baculosomes), soluble or encapsulated in alginate; assayed with BOMCC
Km ([2]; In Alginate): 35.4 ± 8.98 µM
kcat ([2]; In Alginate): 4.65 ± 0.87 min⁻¹
Km [2, 9]: 33.7 ± 2.94 µM
kcat [2, 9]: 7.51 ± 0.48 min⁻¹
